For data set [1], the system named is indomethacin-induced lesions of the stomach. Kind of data set: anti-ulcer activity (protection from indomethacin-induced stomach lesions). In kind it is in vivo. The note with it: Rattus norvegicus, po, male rats, given 1 hour before and 2 hours after 20 mg/kg indomethacin p.o.; dosage protecting 50% of animals from lesions. The procedure:
The experimental procedure described hereinafter was used to determine the anti-ulcer activity:
A number of groups of 8 male rats each with a body weight of 130-150 g are used for each dosage of a test substance. Prior to the beginning of the experiment the animals receive no food for 24 hours, but receive water ad libitum. Various dosages of the substances to be tested (suspended in 0.5% tragacanth) or the vehicle alone (controls) are administered twice perorally, namely. 1 hour before and 2 hours after the peroral administration 20 mg/kg of indomethacin. In the control animals, this dosage of indomethacin leads to lesions of the stomach within 5 hours. The animals are killed 6 hours after the first administration of the substance under investigation (or of the vehicle alone). The rats which remain protected from the occurrence of macroscopically visible lesions to the mucous membrane of the stomach are counted. The ED50 is that dosage of a test substance at which 50% of the animals are protected from the occurence of such lesions.
(§1) In the following Table there are given for a series of representative compounds of formula I the results of the testing with respect to their anti-ulcer activity and to their gastric secretion inhibiting activity. Moreover, this Table contains data concerning the acute toxicity (LD50 in the case of single oral administration to mice).

A short description of data set [2]: acute toxicity (single oral administration). Particulars: mouse, in vivo, read-out: Toxicity LD 50.
Excerpt: as §1

Data set [3] relates to gastric acid production caused by 4-methylhistamine. Kind of data set: gastric acid secretion-inhibiting activity (4-methylhistamine-stimulated, Heidenhain pouch). In kind it is in vivo. The note with it: Canis lupus familiaris, po; p.o. (dry powder in gelatin capsules), conscious beagle hounds, i.v. infusion of 4-methylhistamine; 50% inhibition vs controls. The procedure:
The experimental procedure described hereinafter was used to determine the gastric acid secretion-inhibiting activity:
A part of the stomach fundus of female and male beagle hounds is separated from the remainder of the stomach in the form of a pouch of the Heidenhain type by a modification of the method described in Rudick et al., J. Surgical Research 7, 383-398 (1967). In the pouch there is fitted a steel cannula which is conducted externally through the abdominal wall. Before each experiment the animals receive no food for 18 hours, but receive water ad libitum. They are conscious and standing during the experiment and their gastric acid secretion is stimulated by the intravenous infusion of 4-methylhistamine, a selective […] of the histamine H2 -receptors. The gastric acid production is determined in 15 minute fractions of the stomach pouch juice. As soon as the gastric acid production has a constant value, the substances to be tested are administered orally as a dry powder filled into gelatin capsules. The ED50 is that dosage of a test substance which brings about a 50% inhibition of the gastric acid production caused by 4-methylhistamine in the treated animals in comparison to the controls.
as §1

Setting [4] is: p.o., single oral administration to mice.

Molecules are shown by their SMILES. Where two headings read alike, the source gives them in different places.

In general, ED50 refers to the dose that gives a 50% effect, or the effect in half of the subjects. Low values mean an effect at a small dose, high ones a need for a large dose. For `COc1cc[n+](-c2nc3ccc(C(F)(F)F)cc3[nH]2)c(CSCC(C)(C)OCCO)c1C.CS(=O)(=O)[O-]` [A, 2-[[[2-(2-Hydroxyethoxy)-2-methylpropyl]thio]-methyl]-4-methoxy-3-methyl-1-[5-(trifluoromethyl)-2-benzimidazolyl]pyridinium methanesulfonate], the ED50 in data set [1] was 4.4 mg/kg; in data set [3] it was 4.9 mg/kg. Moreover, in data set [2] (setting [4]), the LD50 is 2500 to 5000 mg/kg.
On to `COc1cc[n+](-c2nc3cc(C(F)(F)F)ccc3[n-]2)c(CSCC(C)(C)OCCO)c1C` [B, Intramolecularly deprotonized 2-[[[2-(2-hydroxyethoxy)-2-methylpropyl]thio]methyl]-4-methoxy-3-methyl-1-[5-(trifluoromethyl)-2-benzimidazolyl]pyridinium cation], for which the 50% effective dose (ED50) in data set [1] was determined as 6.1 mg/kg; in data set [3], 3.9 mg/kg. Moreover, the LD50 in data set [2] (po) is 2500 to 5000 mg/kg.
On to `COCCOC(C)(C)CSCc1c(C)c(OC)cc[n+]1-c1nc2ccc(C(F)(F)F)cc2[nH]1.CS(=O)(=O)[O-]` [C, 4-Methoxy-2-[[[2-(2-methoxyethoxy)-2-methylpropyl}thio]methyl]-3-methyl-1-[5-(trifluoromethyl)-2-benzimidazolyl]pyridinium methanesulfonate], for which the ED50 turned out to be 6 mg/kg in data set [1] and 5.5 mg/kg in data set [3]. In addition, the LD50 in data set [2] (setting [4]) fell in the range of 1000 to 2000 mg/kg.
Consider `COCCOC(C)(C)CSCc1c(C)c(OC)cc[n+]1-c1nc2cc(C(F)(F)F)ccc2[n-]1` [D, Intramolecularly deprotonized 4-methoxy-2-[[[2-(2-methoxyethoxy)-2-methylpropyl]thio]methyl]-3-methyl-1-[5-(trifluoromethyl)-2-benzimidazolyl]pyridinium cation], for which the ED50 in data set [1] was 7 mg/kg; in data set [3] it was 4.8 mg/kg. The LD50 in data set [2] (po) was in the range of 2500 to 5000 mg/kg.
Regarding `COc1cc[n+](-c2nc3ccc(C(F)(F)F)cc3[nH]2)c(CSCC(C)(C)OC(C)=O)c1C.CS(=O)(=O)[O-]` [E, 2-[[(2-Acetoxy-2-methylpropyl)thio]methyl]-4-methoxy-3-methyl-1-[5-(trifluoromethyl)-2-benzimidazolyl]pyridinium methanesulfonate], the 50% effective dose (ED50) came to 3.2 mg/kg in data set [1] and 3 mg/kg in data set [3]. In addition, the LD50 in data set [2] (setting [4]) fell in the range of 2500 to 5000 mg/kg.
On the same counts, the results for `COc1cc[n+](-c2nc3ccc(C(F)(F)F)cc3[nH]2)c(CSCC(C)(C)OC(C)=O)c1C.[Cl-]` [F, 2-[[(2-Acetoxy-2-methylpropyl)thio]methyl]-4-methoxy-3-methyl-1-[5-(trifluoromethyl)-2-benzimidazolyl]pyridinium chloride] are 1.9 mg/kg, 1.8 mg/kg and 1250 to 2500 mg/kg.
Consider `COc1cc[n+](-c2nc3cc(C(F)(F)F)ccc3[n-]2)c(CSCC(C)(C)OC(C)=O)c1C` [G, Intramolecularly deprotonized 2-[[(2-acetoxy-2-methylpropyl)thio]methyl]-4-methoxy-3-methyl-1-[5-(trifluoromethyl)-2-benzimidazolyl]pyridinium cation], for which the ED50 in data set [1] amounted to 2.8 mg/kg; in data set [3], 1.5 mg/kg. For the same compound, the LD50 in data set [2] (po) fell in the range of 2500 to 5000 mg/kg.
With `CCOC(C)(C)CSCc1c(C)c(OC)cc[n+]1-c1nc2ccc(C(F)(F)F)cc2[nH]1.CS(=O)(=O)[O-]` [H, 2-[[(2-Ethoxy-2-methylpropyl)thio]methyl]-4-methoxy-3-methyl-1-[5-(trifluoromethyl)-2-benzimidazolyl]pyridinium methanesulfonate], the median effective dose (ED50) in data set [1] turned out to be 3.2 mg/kg; in data set [3], 4.3 mg/kg.
`CCOC(C)(C)CSCc1c(C)c(OC)cc[n+]1-c1nc2ccc(C(F)(F)F)cc2[nH]1.[Cl-]` [I, 2-[[(2-Ethoxy-2-methylpropyl)thio]methyl]-4-methoxy-3-methyl-1-[5-(trifluoromethyl)-2-benzimidazolyl]pyridinium chloride]: the figures for the ED50 in data set [1] and in data set [3] were 4.1 mg/kg and 3.8 mg/kg, respectively. In addition, the LD50 in data set [2] (setting [4]) lay within 2500 to 5000 mg/kg.
For `CCOC(C)(C)CSCc1c(C)c(OC)cc[n+]1-c1nc2cc(C(F)(F)F)ccc2[n-]1` [J, Intramolecularly deprotonized 2-[[(2-ethoxy-2-methylpropyl)thio]methyl]-4-methoxy-3-methyl-1-[5-(trifluoromethyl)-2-benzimidazolyl]pyridinium cation], the median effective dose (ED50) in data set [1] amounted to 4.6 mg/kg; in data set [3], 3.7 mg/kg. Also, in data set [2] (po), the LD50 was > 5000 mg/kg.

These data come from patent US4950677A, “Benzimidazole derivative compounds and method of making” (Hoffmann-La Roche Inc., priority 1987, dated 1990).
